Test results reported in patent US20040077611A1, “Triple therapy of angiotensin converting enzyme inhibitor epoxy-steroidal aldosterone antagonist and diuretic or digoxin for treatment of cardiovascular disease” (G.D. Searle & Co., priority 1999, published 2004).
Converted amounts (≈) assume the structure as drawn. Read-outs that look alike come from different tables or passages of the source. Values belong to the compound of their own block, whether it stands above or below them.

What was measured:
[1] = Physical stability of solid state forms of eplerenone; format: physicochemical; conditions: temperatures below the enantiotropic transition temperature
[2] = Dissolution rate of unformulated solid state forms of eplerenone; format: physicochemical; conditions: temperatures below the enantiotropic transition temperature
[3] = tested on: patients with LV dysfunction 2 to 6 days following MI; conditions: cited from earlier work
[4] = tested on: patients with severe HF (NYHA Class IV); conditions: cited from earlier work
[5] = tested on: patients alive at Day 3 with Killip class >I; conditions: patients randomized to lisinopril; ACE-I treatment stopped at 42 days; cited from earlier work
[6] = tested on: patients with clinical evidence of HF at any time after an AMI; conditions: cited from earlier work; for risk reduction in all cause mortality: compared to placebo (p=0.002)
[7] = tested on: patients with impaired ejection fraction post AMI; conditions: cited from earlier work
[8] = tested on: patients with stable NYHA Class II-IV heart failure; test: Clinical trial of eplerenone added to ACE inhibitor and loop diuretic in heart failure (Biological Evaluation I); conditions: for plasma renin activity (PRA): 12 weeks of treatment, FIG. 28
[9] = tested on: patients afflicted with congestive heart failure; conditions: cited from earlier work
[10] = tested on: patients with severe HF (NYHA Class III or IV); conditions: cited from earlier work
[11] = tested on: myocardial fibrosis in animal models; conditions: cited from earlier work
[12] = Solubility of eplerenone in crystallization solvents; format: physicochemical; conditions: organic crystallization solvent or mixture of solvents, room temperature
humans = test: Effects of eplerenone pharmaceutical compositions in humans after oral administration; format: in vivo
[13] = tested on: patients with stable NYHA Class II-IV heart failure; conditions: human, in vivo
[14] = humans, over about 12 to 24 hours after ingestion of the composition

- physical stability relative to Form H [1]: greater physical stability
SMILES: COC(=O)[C@@H]1CC2=CC(=O)CC[C@]2(C)[C@@]23O[C@@H]2C[C@@]2(C)[C@@H](CC[C@@]24CCC(=O)O4)[C@H]13 [Form L]

- dissolution rate relative to unformulated Form L [2]: approximately 30%
SMILES: COC(=O)[C@@H]1CC2=CC(=O)CC[C@]2(C)[C@@]23O[C@@H]2C[C@@]2(C)[C@@H](CC[C@@]24CCC(=O)O4)[C@H]13 [Form H]

SMILES: CCOC(=O)[C@H](CCc1ccccc1)N[C@@H](C)C(=O)N1[C@H](C(=O)O)C[C@H]2CCCC[C@@H]21 [trandolapril]
- relative reduction in the risk of death ([3]; compared to placebo (p=0.001)): 18%
- reduction in the risk of progression to severe HF ([3]; compared to placebo (p=0.003)): 29%

SMILES: CCOC(=O)[C@H](CCc1ccccc1)N[C@@H](C)C(=O)N1CCC[C@H]1C(=O)O [enalapril]
- reduction of mortality at one year ([4]; enalapril plus diuretics compared to placebo plus diuretics): 31%
- mortality ([4]; group with baseline aldosterone plasma levels above the median): reduced
- mortality ([4]; group with baseline aldosterone plasma levels below the median): no difference from placebo

SMILES: NCCCC[C@H](N[C@@H](CCc1ccccc1)C(=O)O)C(=O)N1CCC[C@H]1C(=O)O [lisinopril]
- first-year mortality [5]: 22%

SMILES: CCOC(=O)[C@H](CCc1ccccc1)N[C@@H](C)C(=O)N1[C@H](C(=O)O)C[C@@H]2CCC[C@@H]21 [ramipril]
- risk reduction in all cause mortality ([6]; AIRE): 27%
- reduction in the risk of developing severe resistant HF ([6]; AIRE, compared to placebo (p=0.017)): 23%
- risk reduction in all cause mortality ([6]; AIREX long-term (three year) follow-up): 36%
- ventricular dilatation and systolic dysfunction [7]: prevented ventricular dilatation and further decline of systolic dysfunction

SMILES: CC(=O)S[C@@H]1CC2=CC(=O)CC[C@]2(C)[C@H]2CC[C@@]3(C)[C@@H](CC[C@@]34CCC(=O)O4)[C@H]12 [spironolactone]
- plasma renin activity (PRA) [8]: significantly elevated
- testosterone levels ([8]; males): significant increase
- clinical outcome ([9]; co-therapy of spironolactone and enalapril): Clinical improvements
- patients in whom co-therapy was highly effective ([9]; spironolactone coadministered with an ACE inhibitor): 13 of 16
- reduction in mortality compared to placebo ([10]; as restated): > 30%
- median increase in serum potassium concentration ([10]; compared to patients treated with placebo): statistically but not clinically significant
- risk reduction for all cause mortality ([10]; spironolactone 25 mg daily added to standard therapy vs standard therapy plus placebo (p<0.001)): 30%
- lower frequency of hospitalization for worsening HF ([10]; vs placebo patients): 35%
- ventricular dilatation and systolic dysfunction [7]: prevented ventricular dilatation and further decline of systolic dysfunction
- myocardial fibrosis ([11]; Klug et al): prevents myocardial fibrosis
- fibrosis ([11]; irrespective of the development of left ventricular hypertrophy and the presence of hypertension, Brilla et al): prevent fibrosis

- solubility [12]: 5 to 200 mg/mL (≈ 12.1 to 483 mM)
- testosterone levels [13]: lack of effect
SMILES: COC(=O)[C@@H]1CC2=CC(=O)CC[C@]2(C)[C@@]23O[C@@H]2C[C@@]2(C)[C@@H](CC[C@@]24CCC(=O)O4)[C@H]13 [eplerenone, Pregn-4-ene-7,21-dicarboxylic acid, 9,11-epoxy-17-hydroxy-3-oxo-, γ-lactone, methyl ester, (7^α, 11^α, 17^α)-]
- average decrease in diasystolic blood pressure (humans; [14]): at least 5%
- average increase in blood serum aldosterone concentrations (humans; [14]): at least 50%
- average increase in blood serum renin concentration (humans; [14]): at least 10%
- urinary log10 (sodium/potassium) ratio (humans; [14]): increase
- efficacy of the required daily dosage, once-a-day relative to twice-a-day administration (humans; in vivo): does not appear to materially differ
- plasma renin activity (PRA) [8]: significantly elevated
- reduction in BNP ([8]; eplerenone at 25 mg and 100 mg, all patients, FIG. 29): highly significant
- urinary aldosterone excretion, increase from baseline ([8]; eplerenone doses of 50 and 100 mg, 12 week visit): Greater increases
